Laboratory results reported in PMC4136963, “Structure-Based Design and Synthesis of Antiparasitic Pyrrolopyrimidines Targeting Pteridine Reductase 1” (Journal of Medicinal Chemistry, 2014).
Structures can show the parent of a compound that is named as a salt. Where two headings read alike, the source gives them in different places.

Assays:
T. b. brucei = assay: microbe, parasite or virus in culture; format: cell-based, T. b. brucei (strain Lister 427)
Procedure: Cells were routinely diluted when reaching the mid-log-phase concentration of 2 × 10^6 cells/mL and maintained in culture for no more than 30 passages.
Compounds’ potency against trypanosomes was assessed by Alamar blue assay.[31] Cells were seeded at a final concentration of 2 × 10^4 cells/mL into serial dilutions of the test compound. After 48 h incubation at 37 °C and 5% CO2, 20 μL of resazurin dye (Sigma-Aldrich) solution at 0.49 mM was added, and cells were incubated for a further 24 h. The reduction of resazurin was measured with a fluorimeter (FLUOstar Optima, BMG Labtech) using 544 nm excitation and 590 nm emission wavelengths. Output was plotted using the IC50 determination algorithm of the GraphPad Prism 5.0 software. All experiments were carried out in duplicate and repeated on at least three independent occasions.

Clearance (Cli) = format: in vitro ADME; settings: footnote: Cli is the clearance in vivo
HEK 293T cells = assay: cells; format: cell-based, human; settings: read-out: HEK (IC50 μM)
[1] = Metabolic stability in microsomal assay (t1/2); format: in vitro ADME; settings: microsomes
[2] = Plasma binding (fraction unbound); format: in vitro ADME; settings: mouse; fraction unbound by plasma; read-out: plasma bind fu
T. b. brucei strain 427 = settings: infected mice, 30 mg/kg i.p. once daily up to 4 days; one surviving mouse per group; from ∼10^8
Procedure: Twenty-four hours postinfection mice were injected intraperitoneally with 30 mg/kg daily of test compound (repeated for four consecutive days), prepared in a 10% v/v DMSO, 40% v/v PEG, and 50% v/v water solution. Parasitaemia was monitored daily by tail venipuncture. Infected, untreated mice were used as control.

[3] = Trypanosoma brucei, read-out: T. b. brucei (IC50 μM), medium not stated
[4] = Trypanosoma brucei, read-out: T. b. brucei (IC50 μM) CMM, Creek's minimal medium (CMM)
[5] = Trypanosoma brucei, read-out: T. b. brucei (IC50 μM) HMI-9, HMI-9 medium
[6] = read-out: T. b. brucei (IC50 μM) CMM, Creek's minimal medium (CMM)
[7] = read-out: T. b. brucei (IC50 μM) HMI-9, HMI-9 medium
[8] = half-life of the compound, read-out: t1/2

| SMILES | IC50 (T. b. brucei; [3]) [µM] | IC50 (T. b. brucei; [4]) [µM] | IC50 (T. b. brucei; [5]) [µM] | IC50 (HEK 293T cells; Homo sapiens, HEK-293T) [µM] | further results |
| --- | --- | --- | --- | --- | --- |
| Nc1nc(N2CCSCC2)c2cc[nH]c2n1 [8b] | 80.1 | – | – | – | – |
| CC(C)COc1nc(N)nc(N)c1C(C[N+](=O)[O-])c1ccc(F)cc1 (stereo not shown) [30a] | – | 10.6 | 13.9 | – | – |
| Nc1nc(N2CCCC2)c2c(C#Cc3ccccc3)c[nH]c2n1 [compound 20, 5-(Phenylethynyl)-4-(1-pyrrolidinyl)-7H-pyrrolo[2,3-d]pyrimidin-2-amine] | – | – | – | – | Cli (Clearance (Cli)): 5.6 mL/min/g |
| N#Cc1c(-c2cccc(C=O)c2)[nH]c2nc(N)nc(N)c12 [6a] | 6.03 | – | – | – | – |
| Nc1nc(N)c2c(-c3ccccc3)c(-c3ccccc3)[nH]c2n1 [35a, 5,6-Diphenyl-7H-pyrrolo[2,3-d]pyrimidine-2,4-diamine] | – | 0.58 | 2.25 | 62.9 | IC50 (T. b. brucei; [6]): 0.583 µM; IC50 (T. b. brucei; [7]): 2.25 µM; IC50 (HEK 293T cells): 62.9 µM; Cli (Clearance (Cli)): 5.26 mL/min/g; half-life [1, 8]: ~1.67 h; fraction unbound [2]: 0.035 |
| Nc1nc(N)c2c(-c3ccc(F)cc3)c[nH]c2n1 [29b] | – | – | – | – | Cli (Clearance (Cli)): 1.7 mL/min/g |
| Nc1nc2[nH]c(-c3ccccc3)c(-c3ccccc3)c2c(=O)[nH]1 [34a, 2-Amino-5,6-diphenyl-3,7-dihydro-4H-pyrrolo[2,3-d]pyrimidin-4-one] | – | 0.41 | 0.64 | – | IC50 (T. b. brucei; [6]): 0.407 µM; half-life [1, 8]: ~2.17 h; fraction unbound [2]: 0.029 |
| Nc1nc(N)c2c(-c3ccccc3)c(-c3ccc(F)cc3)[nH]c2n1 [35b, 6-(4-Fluorophenyl)-5-phenyl-7H-pyrrolo[2,3-d]pyrimidine-2,4-diamine] | – | 0.08 | 0.32 | 49.2 | IC50 (T. b. brucei; [6]): 0.082 µM; IC50 (T. b. brucei; [7]): 0.321 µM; IC50 (HEK 293T cells): 49.2 µM; reduction of parasitaemia (T. b. brucei strain 427): below detectable limits; Cli (Clearance (Cli)): 1.90 mL/min/g; half-life [1, 8]: > 8.33 h; half-life ([1]; metabolic stability in microsomal assay, read-out: t1/2 in microsomal assay): > 8 h; fraction unbound [2]: 0.011 |
| Nc1nc2[nH]c(-c3ccc(F)cc3)c(-c3ccccc3)c2c(=O)[nH]1 [34c, 2-Amino-6-(4-fluorophenyl)-5-phenyl-3,7-dihydro-4H-pyrrolo[2,3-d]pyrimidin-4-one] | – | 0.61 | 0.74 | > 200 | IC50 (T. b. brucei; [6]): 0.614 µM; IC50 (T. b. brucei; [7]): 0.738 µM; Cli (Clearance (Cli)): 0.17 mL/min/g; fraction unbound [2]: 0.017 |
| N=C(N)c1ccc(/N=N/Nc2ccc(C(=N)N)cc2)cc1 [diminazene, reference compound] | – | 0.007 | 0.027 | – | – |
| Cc1ccc(C(C[N+](=O)[O-])c2c(N)nc(N)[nH]c2=O)cc1 (stereo not shown) [26a] | 2.04 | – | – | 73.4 | – |
| Nc1nc2[nH]cc(CCc3ccccc3)c2c(=O)[nH]1 [27d] | 7620 | – | – | – | – |
| N#Cc1c[nH]c2nc(N)nc(N)c12 [compound 4, 2,4-diamino-7H-pyrrolo[2,3-d]pyrimidine-5-carbonitrile] | 2440 | – | – | – | – |
| Cc1ccc(C(C[N+](=O)[O-])c2c(N)nc(N)nc2N)cc1 (stereo not shown) [28a] | 0.47 | – | – | 32.5 | – |
| Nc1nc(N)c(C(C[N+](=O)[O-])c2ccc(F)cc2)c(NC2CCCCC2)n1 (stereo not shown) [30b] | – | 0.8 | 0.54 | 32.6 | – |
| CC(C)Oc1nc(N)nc(N)c1C(C[N+](=O)[O-])c1ccc(F)cc1 (stereo not shown) [30c, 5-[1-(4-Fluorophenyl)-2-nitroethyl]-6-isopropyloxy-2,4-pyrimidinediamine] | – | 8.48 | 15.9 | – | – |
| Nc1nc2[nH]c(-c3ccccc3)c(CCc3ccccc3)c2c(=O)[nH]1 [34i] | – | – | – | – | Cli (Clearance (Cli)): 2.5 mL/min/g |
| Nc1nc(N)c(C(C[N+](=O)[O-])c2ccccc2)c(N)n1 (stereo not shown) [28c, 5-(2-Nitro-1-phenylethyl)-2,4,6-pyrimidinetriamine] | 0.13 | – | – | 35 | – |
| Nc1nc(N)c(C(C[N+](=O)[O-])c2ccc(F)cc2)c(N)n1 (stereo not shown) [28b] | 0.16 | – | – | 39.1 | – |
| Nc1nc2[nH]c(-c3ccc(CCCN4CCOCC4)cc3)c(-c3ccccc3)c2c(=O)[nH]1 [compound 38, 2-Amino-6-{4-[3-(4-morpholinyl)propyl]phenyl}-5-phenyl-3,7-dihydro-4H-pyrrolo[2,3-d]pyrimidin-4-one trifluoroacetate] | – | 20.1 | 38.1 | – | – |
| Nc1nc2[nH]c(-c3ccc(F)cc3)c(-c3cccc(Cl)c3)c2c(=O)[nH]1 [34l] | – | – | – | – | Cli (Clearance (Cli)): <0.5 mL/min/g |
| CN(Cc1cnc2nc(N)nc(N)c2n1)c1ccc(C(=O)N[C@@H](CCC(=O)O)C(=O)O)cc1 [methotrexate, reference compound] | – | 0.011 | 3.66 | – | – |
| Nc1nc(N)c(C(CCc2ccccc2)C[N+](=O)[O-])c(N)n1 (stereo not shown) [28d] | 8.82 | – | – | – | – |
| N#Cc1c[nH]c2nc(N)nc(N3CCSCC3)c12 [12d] | 14.3 | – | – | – | – |
| Nc1nc(N)c(C(C[N+](=O)[O-])c2ccc(F)cc2)c(=O)[nH]1 (stereo not shown) [26b] | 1.86 | – | – | 150 | – |
| Nc1nc(N)c(C(C[N+](=O)[O-])c2ccccc2)c(=O)[nH]1 (stereo not shown) [26c, 2,6-diamino-5-(2-nitro-1-phenylethyl)-4(3H)-pyrimidinone] | 1.02 | – | – | 134 | – |
